{"source": "paper PMC7275090", "about": "“Mode of action of teixobactins in cellular membranes” (Nature Communications, 2020)", "key": {"[1]": {"conditions": "vancomycin, unlike teixobactins; cited from earlier work", "excerpt": "In summary, a picture of a balanced binding mode emerges in which teixobactins use the conserved pyrophosphate as firm, specific anchor, whereas the interaction with the sugar-pentapeptide headgroup is more loosely defined[28],[29]. This behaviour enables teixobactins to recognize different cognate cell-wall building blocks and wall teichoic acids precursors, such as Lipid I, Lipid II, Lipid III, and undecaprenyl pyrophosphate that all have the PPi moiety in common but feature different headgroups. The capacity to recognize several conserved precursor molecules both maximizes the number of ..."}, "[2]": {"experiment": "Fluorescence microscopy of GUVs doped with NBD-labelled Lipid II (Lipid II clustering)", "conditions": "DOPC GUVs, 1 μM peptide, 4 h", "experimental": "GUVs were prepared using the electroformation method. The GUV cell is a self-assembled system which consists of a 5 mm-thick Teflon plate which is aligned with two titanium electrodes in a closed Teflon chamber. 1.5 μL of 0.5 mM DOPC doped with NBD-labelled Lipid II (0.1 mol%) were brushed on the electrodes. Next, the chamber was filled with 350 μL 0.1 M sucrose solution; the electrodes dipped in and then connected to a power supply which generated a sine wave of voltage 2.5 V at a frequency of 10 Hz for 90 min. Each microscopy slide (μ-slide 8 well, Ibidi) was covered with 350 μL BSA solution (1 mg/mL). To detach the GUVs from the electrodes the power supply was changed to square wave of voltage 2 V at a frequency of 2 Hz for 15 min. The slides were immersed in 300 μL 0.1 mM glucose solution to which 80 μL of GUVs were added. These were incubated for 4 h with 1 μM [R4L10]-teixobactin and observed by confocal microscopy. Anionic GUVs were prepared using a homemade electroformation setup with ITO coverslips (18 × 18 mm, 15–30 Ω, SPI supplies). On both slips, 3 μL of a chloroform–methanol (1:1, vol/vol) solution containing 1 mM of a 3:1 mixture of DOPC:DOPG (mol/mol) and 0.1 mol% NBD-labelled Lipid II was deposited and dried in a vacuum desiccator. With these slips, the electroformation chamber was assembled and filled with 0.1 M sucrose solution. The GUV cell was connected to the power supply and an alternating current applied (1 V, 10 Hz). GUV formation was carried out overnight.\nMicroscopy: GUVs were imaged using Zeiss LSM 880 with ×63/1.2NA glycerol objective lens. The NBD label appeared green upon excitation by the 488 nm laser. The emission range for detection was 530–545 nm (λem peak = 539 nm). The brightfield images were used for detection and location of the GUVs without a fluorescent signal and also as a control to observe their shape."}, "[3]": {"experiment": "ssNMR 15N T1rho relaxation (dynamics of bound teixobactin), Lys-Lipid II", "conditions": "[L10] analogue, 60 kHz MAS", "protocol": "Relaxation studies: ^1H-detected ^15N T1rho relaxation experiments were carried out at 950 and 700 MHz magnetic field, respectively, using 60 kHz MAS[51]. The ^15N transverse magnetization decay was probed with a ^15N spinlock field of 17.5 kHz. For the bulk, we measured the intensity of the most intense signal at ~8.80 ^1H ppm. T1rho trajectories were fit to single exponentials.\nLipid I or II-doped multi-laminar vesicle preparations: DOPC or DOPG lipids were mixed with Lipid I or II in 1:1 MeOH:CHCl3 at the final Lipid I or II molar ratio (0–4 mol%/mol). The mixtures were dried and the lipid films were hydrated by vortexing with 2 mL of a teixobactin solution in 40 mM phosphate, 25 mM NaCl, pH 7.0.\n(§1) SSNMR samples: MLVs were collected by centrifugation (20,000×g) and loaded into ssNMR rotors. For 3.2 mm rotors, we used 800 nmol of antibiotic with unlabelled Lipid II or I, while we used 400 nmol with labelled Lipid II. For 1.3 mm rotors, samples contained 200 nmol of antibiotic for unlabelled Lipid II or I, while we used 100 nmol for labelled Lipid II. For all ssNMR samples, we used 4 mol%/mol Lipid II or I in the MLVs."}, "[4]": {"experiment": "ssNMR signal intensity of Lipid II-bound teixobactin, DOPC vs DOPG liposomes", "excerpt": "as §1\nH/ppm H/ppm N spinlock duration (ms)\nWeaker binding affinity to Lipid II in anionic conditions is a common property of the binding mode of teixobactins.\nTo validate and generalise our findings, we repeated ssNMR studies with a second analogue, [L10]-teixobactin, which is close to natural teixobactin. Both [L10]- teixobactin and [R4L10]-teixobactin show similar behaviour in anionic membranes, i.e., sharp drops in ssNMR sensitivity and marked increase in mobility in the complex. We note that only the difference between natural teixobactin and [Leu10]- teixobactin is the substitution of enduracididine10 by leucine10. We also note that the substitution by enduracididine10 by cationic or hydrophobic residues is tolerated […]\na) 1H-detected 1D NH spectra of Lipid II-bound [Leu10]-teixobactin measured in DOPC (cyan) and DOPG (red) liposomes. The signal-to-noise ratio is more than six times lower in anionic membranes. Both spectra were acquired with fully packed 1.3 mm rotors and 10240 scans each. b)15N T1rho signal decay curves of the bulk signal of Lipid II-bound [Leu10]- teixobactin in DOPC (cyan) and (DOPG (red) membranes. Relaxation is much faster […]\nc) Corresponding 15N R1rho rates of Lipid II-bound [Leu10]-teixobactin in DOPC (cyan) and DOPG (red) membranes. The error bars show the standard error of the fit. Source data are provided as a Source Data file.\nThe spectra were acquired at 700 MHz with 60 kHz magic angle spinning (MAS)."}, "[5]": {"target": "the molecule itself", "experiment": "solid-state NMR; 2D 13C13C PARISxy spectra with long magnetization transfer times (50-1000 ms), distance threshold ~8 Å; 13C,15N-labelled [R4L10]-teixobactin bound to unlabelled Lipid II (4 mol%) in DOPC membranes; 950 MHz, 15.5 kHz MAS, 270 K"}}, "note": "Bridge positions count the residues as written; N and C are the ends. Square brackets hold non-standard residues; d marks the D form. Ends that are not written are not given here. d(aIle) = CC[C@H](C)[C@@H](N)C(=O)O; dNMeF = CN[C@H](Cc1ccccc1)C(=O)O", "data": [{"molecule": "vancomycin", "values": [{"measurement": "ability to bind Lipid II versions with different pentapeptides", "setting": "[1]", "value": "unlike vancomycin"}]}, {"molecule": "Leu10-teixobactin [[L10]-teixobactin]", "values": [{"measurement": "Lipid II segregation into clusters on GUVs", "setting": "[2]; 0.1 mol% NBD-Lipid II", "value": "segregation of Lipid II into clusters"}, {"measurement": "vesicle integrity and morphology after incubation", "setting": "[2]; brightfield images, cluster sites show slight membrane deformations", "value": "morphology is maintained"}, {"measurement": "Bulk 15N R1rho", "setting": "[3]; Lys-LII in DOPC (Lys-LII PC)", "value": 5.29, "unit": "s⁻¹"}, {"measurement": "Bulk 15N T1rho", "setting": "[3]; Lys-LII in DOPC (Lys-LII PC)", "value": 189.00, "unit": "ms"}, {"measurement": "Bulk 15N R1rho", "setting": "[3]; Lys-LII in DOPG (Lys-LII PG)", "value": 18.49, "unit": "s⁻¹"}, {"measurement": "Bulk 15N T1rho", "setting": "[3]; Lys-LII in DOPG (Lys-LII PG)", "value": 54.07, "unit": "ms"}, {"measurement": "signal-to-noise ratio, times lower in anionic membranes", "setting": "[4]; DOPG vs DOPC, 1H-detected 1D NH spectra, 10240 scans each", "value": "more than six"}, {"measurement": "relative 1D NH signal, DOPC", "setting": "[4]; Supplementary Figure 11a, DOPC (reference)", "value": 100, "unit": "%"}, {"measurement": "relative 1D NH signal, DOPG", "setting": "[4]; Supplementary Figure 11a, DOPG relative to DOPC", "value": 15, "unit": "%"}]}, {"molecule": "[dNMeF]IS[dR][d(aIle)]IS[dT]ALI (ester 8-C; also: 13C,15N-labelled at Ile2, Ser3, Ile6, Ser7, Ala9, Leu10, Analogue of teixobactin, a natural undecapeptide from Eleftheria terrae; Cyclic depsipeptide with non-proteinogenic and D-residues; also called D-Arg4-Leu10-teixobactin; source: synthetic peptide (solid-phase synthesis, cyclised, purified by RP-HPLC))", "note": "[[R4L10]-teixobactin]", "values": [{"measurement": "binding result", "setting": "[5]", "value": "binds"}]}]}
